For 20 compounds, EC50 results are on record in patent US8574563B2 (Bristol-Myers Squibb Company, priority 2006, dated 2013).

For one assay, the system named is HCV 1b-377-neo replicon cells. The experiment in a line: HCV replicon assay, HCV 1b-377-neo replicon cells (1b FRET). The conditions noted are these: HCV 1b-377-neo replicon cells; HCV 1b genotype; read-out: EC50 range against HCV 1b (Table 2, Range). The assay is classed as cell-based, Hepatitis C virus genotype 1b. The method in brief: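 Compounds were tested in genotype 1b subgenomic replicon cells carrying a neomycin marker, alongside a matched replicon line with an NS5A Y2065H substitution that confers resistance to a reference NS5A inhibitor.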
In the case of “methyl (2-((2S)-2-(5-(4′-(2-((2S)-1-((2R)-2- (dimethylamino)-2-phenylacetyl)-2- pyrrolidinyl)-1H-imidazol-5-yl)-4-biphenylyl)- 1H-imidazol-2-yl)-1-pyrrolidinyl)-2- oxoethyl)carbamate [Example 91]”, the EC50 was 0.001 to 0.999 nM.

Staying with this assay, now noted: Hepatitis C virus, HCV 1b-377-neo replicon cells; HCV 1b genotype; read-out: EC50 range against HCV 1b (Table 2, Range).
For the compound `CCN(C)[C@@H](C(=O)N1CCC[C@H]1c1ncc(-c2ccc(-c3ccc(-c4cnc([C@@H]5CCCN5C(=O)[C@@H](NC(=O)OC)C(C)C)[nH]4)cc3)cc2)[nH]1)c1ccccc1` [Example M78, methyl ((1S)-1-(((2S)-2-(5-(4′-(2-((2S)-1-((2R)-2-(ethyl(methyl)amino)-2-phenylacetyl)-2-pyrrolidinyl)-1H-imidazol-5-yl)-4-biphenylyl)-1H imidazol-2-yl)-1-pyrrolidinyl)carbonyl)-2-methylpropyl)carbamate], the EC50 fell in the range of 1 to 99 nM.

With `COC(=O)N[C@@H](Cc1cncn1C)C(=O)N1CCC[C@H]1c1ncc(-c2ccc(-c3ccc(-c4cnc([C@@H]5CCCN5C(=O)[C@@H](NC(=O)OC)C(C)C)[nH]4)cc3)cc2)[nH]1` [cj-46, methyl ((1S)-1-(((2S)-2-(5-(4′-(2-((2S)-1-((2S)-2-((methoxycarbonyl)amino)-3-(1-methyl-1H-imidazol-5-yl)propanoyl)-2-pyrrolidinyl)-1H-imidazol-5-yl)-4-biphenylyl)-1H-imidazol-2-yl)-1-pyrrolidinyl)carbonyl)-2-methylpropyl)carbamate], the EC50 is 0.001 to 0.999 nM.

As for `O=C(Cc1ccccc1F)N1CCC[C@H]1c1ncc(-c2ccc(-c3ccc(-c4cnc([C@@H]5CCCN5C(=O)[C@@H](c5ccccc5)N5CCCCC5)[nH]4)cc3)cc2)[nH]1` [Example 107-28], the EC50 is 0.001 to 0.999 nM.

Consider `COC(=O)N[C@H](C(=O)N1CCC[C@H]1c1nc(-c2ccc(-c3ccc(-c4c[nH]c([C@@H]5CCCN5C(=O)[C@@H](NC(=O)OC5CCOCC5)C(C)C)n4)cc3)cc2)c[nH]1)C(C)C` [Example F55, tetrahydro-2H-pyran-4-yl ((1S)-1-(((2S)-2-(4-(4′-(2-((2S)-1-(N-(methoxycarbonyl)-L-valyl)-2-pyrrolidinyl)-1H-imidazol-4-yl)-4-biphenylyl)-1H-imidazol-2-yl)-1-pyrrolidinyl)carbonyl)-2-methylpropyl)carbamate], for which the EC50 was 0.001 to 0.999 nM.

Consider `CCN(CC)[C@@H](C(=O)N1CCC[C@H]1c1ncc(-c2ccc(-c3ccc(-c4cnc([C@@H]5CCCN5C(=O)C(C)(C)NC(=O)OC)[nH]4)cc3)cc2)[nH]1)c1ccccc1` [Example M34, methyl (2-((2S)-2-(5-(4′-(2-((2S)-1-((2R)-2-(diethylamino)-2-phenylacetyl)-2-pyrrolidinyl)-1H-imidazol-5-yl)-4-biphenylyl)-1H-imidazol-2-yl)-1-pyrrolidinyl)-1,1-dimethyl-2-oxoethyl)carbamate], for which the EC50 lay in the range of 1 to 99 nM.

As to `CCN(CC)[C@@H](C(=O)N1CCC[C@H]1c1ncc(-c2ccc(-c3ccc(-c4cnc([C@@H]5CCCN5C(=O)CC(Cc5ccccc5F)NC(=O)OC)[nH]4)cc3)cc2)[nH]1)c1ccccc1` (stereo in doubt) [cj-59, methyl ((1S)-3-((2S)-2-(5-(4′-(2-((2S)-1-((2R)-2-(diethylamino)-2-phenylacetyl)-2-pyrrolidinyl)-1H-imidazol-5-yl)-4-biphenylyl)-1H-imidazol-2-yl)-1-pyrrolidinyl)-1-(2-fluorobenzyl)-3-oxopropyl)carbamate], the EC50 was in the range of 0.001 to 0.999 nM.

As for `CCN(CC)[C@@H](C(=O)N1CCC[C@H]1c1ncc(-c2ccc(-c3ccc(-c4cnc([C@@H]5CCCN5C(=O)C[C@@H](Cc5ccccc5)NC(=O)OC)[nH]4)cc3)cc2)[nH]1)c1ccccc1` [cj-58, methyl ((1R)-1-benzyl-3-((2S)-2-(5-(4′-(2-((2S)-1-((2R)-2-(diethylamino)-2-phenylacetyl)-2-pyrrolidinyl)-1H-imidazol-5-yl)-4-biphenylyl)-1H-imidazol-2-yl)-1-pyrrolidinyl)-3-oxopropyl)carbamate], the EC50 lay in the range of 0.001 to 0.999 nM.

Take `C[C@@H](c1ncc(-c2ccc(-c3ccc(-c4cnc([C@@H]5CCCN5C(=O)[C@@H](c5ccccc5)N5CCCCC5)[nH]4)cc3)cc2)[nH]1)N(C)C(=O)[C@@H](c1ccccc1)N1CCCCC1` [Example 24-18-6, (2R)-N-methyl-2-phenyl-N-((1S)-1-(5-(4′-(2-((2S)-1-((2R)-2-phenyl-2-(1-piperidinyl)acetyl)-2-pyrrolidinyl)-1H-imidazol-5-yl)-4-biphenylyl)-1H-imidazol-2-yl)ethyl)-2-(1-piperidinyl)acetamide]: the EC50 lay within 0.001 to 0.999 nM.

As for `COC(=O)N[C@@H](C(=O)N1CCC[C@H]1c1ncc(-c2ccc(-c3ccc(-c4cnc([C@@H]5CCCN5C(=O)C(c5ccccc5Cl)N(C)C)[nH]4)cc3)cc2)[nH]1)c1ccccc1` (stereo partly drawn) [Example 84-56, methyl ((1R)-2-((2S)-2-(5-(4′-(2-((2S)-1-((2-chlorophenyl)(dimethylamino)acetyl)-2-pyrrolidinyl)-1H-imidazol-5-yl)-4-biphenylyl)-1H-imidazol-2-yl)-1-pyrrolidinyl)-2-oxo-1-phenylethyl)carbamate], the EC50 lay within 0.001 to 0.999 nM.

As to `CC[C@H](NC(=O)OC)C(=O)N1CC2(CC2)C[C@H]1c1nc(-c2ccc(-c3ccc(-c4c[nH]c([C@@H]5CC6(CC6)CN5C(=O)[C@H](CC)NC(=O)OC)n4)cc3)cc2)c[nH]1` [Example M148, dimethyl (4,4′-biphenyldiylbis(1H-imidazole-4,2-diyl(6S)-5-azaspiro[2.4]heptane-6,5-diyl((2S)-1-oxo-1,2-butanediyl)))biscarbamate], the EC50 was 0.001 to 0.999 nM.

With `CCN(CC)[C@@H](C(=O)N1CCC[C@H]1c1ncc(-c2ccc(-c3ccc(-c4cnc([C@@H]5CCCN5C(=O)[C@H]5CCCC[C@H]5NC(=O)OC)[nH]4)cc3)cc2)[nH]1)c1ccccc1` [cj-94, methyl ((1R,2S)-2-(((2S)-2-(5-(4′-(2-((2S)-1-((2R)-2-(diethylamino)-2-phenylacetyl)-2-pyrrolidinyl)-1H-imidazol-5-yl)-4-biphenylyl)-1H-imidazol-2-yl)-1-pyrrolidinyl)carbonyl)cyclohexyl)carbamate], the EC50 was in the range of 0.001 to 0.999 nM.

With `O=C(OCc1ccccc1)c1nc([C@@H]2CCCN2C(=O)[C@@H](c2ccccc2)N2CCCCC2)[nH]c1-c1ccc(-c2ccc(-c3cnc([C@@H]4CCCN4C(=O)[C@@H](c4ccccc4)N4CCCCC4)[nH]3)cc2)cc1` [Example J23, benzyl 2-((2S)-1-((2R)-2-phenyl-2-(1-piperidinyl)acetyl)-2-pyrrolidinyl)-5-(4′-(2-((2S)-1-((2R)-2-phenyl-2-(1-piperidinyl)acetyl)-2-pyrrolidinyl)-1H-imidazol-5-yl)-4-biphenylyl)-1H-imidazole-4-carboxylate], the EC50 was 0.001 to 0.999 nM.

Turning to `CN(C)[C@@H](C(=O)N1CSC[C@H]1c1ncc(-c2ccc(-c3ccc(-c4cnc([C@@H]5CSCN5C(=O)[C@@H](c5ccccc5)N(C)C)[nH]4)cc3)cc2)[nH]1)c1ccccc1` [Example 148, (1R,1′R)-2,2′-(4,4′-biphenyldiylbis(1H-imidazole-5,2-diyl(4R)-1,3-thiazolidine-4,3-diyl))bis(N,N-dimethyl-2-oxo-1-phenylethanamine)], the half-maximal effective concentration (EC50) was 1 to 99 nM.

For the compound `COC(=O)N[C@@H](C)C(=O)N1CCC[C@H]1c1nc(-c2cnc(-c3ccc(-c4cnc([C@@H]5CCCN5C(=O)[C@H](C)NC(=O)OC)[nH]4)c(F)c3)nc2)c[nH]1` [Example D67, methyl ((1S)-2-((2S)-2-(5-(2-fluoro-4-(5-(2-((2S)-1-(N-(methoxycarbonyl)-L-alanyl)-2-pyrrolidinyl)-1H-imidazol-5-yl)-2-pyrimidinyl)phenyl)-1H-imidazol-2-yl)-1-pyrrolidinyl)-1-methyl-2-oxoethyl)carbamate], the EC50 lay within 0.001 to 0.999 nM.

Consider `CN(C)[C@@H](C(=O)N1C[C@@H](O)C[C@H]1c1ncc(-c2ccc(-c3ccc(-c4cnc([C@@H]5C[C@H](O)CN5C(=O)[C@@H](c5ccccc5)N(C)C)[nH]4)cc3)cc2)[nH]1)c1ccccc1` [Example 24-16, (3S,5S,3′S,5′S)-5,5′-(4,4′-biphenyldiylbis(1H-imidazole-5,2-diyl))bis(1-((2R)-2-(dimethylamino)-2-phenylacetyl)-3-pyrrolidinol)], for which the EC50 fell in the range of 0.001 to 0.999 nM.

On to `Cc1[nH]c([C@@H]2CCCN2C(=O)[C@@H](c2ccccc2)N2CCCCC2)nc1-c1ccc(-c2ccc(-c3cnc([C@@H]4CCCN4C(=O)[C@@H](c4ccccc4)N4CCCCC4)[nH]3)cc2)cc1` [Example E5b, 1-((1R)-2-((2S)-2-(4-(4′-(4-methyl-2-((2S)-1-((2R)-2-phenyl-2-(1-piperidinyl)acetyl)-2-pyrrolidinyl)-1H-imidazol-5-yl)-4-biphenylyl)-1H-imidazol-2-yl)-1-pyrrolidinyl)-2-oxo-1-phenylethyl)piperidine], for which the EC50 lay in the range of 0.001 to 0.999 nM.

As to `CN(C)[C@@H](C(=O)N1CCC[C@H]1c1ncc(-c2ccc(-c3ccc(-c4cnc([C@@H]5CCCN5C(=O)c5ccccc5F)[nH]4)cc3)cc2)[nH]1)c1ccccc1` [Example 94-38, (1R)-2-((2S)-2-(5-(4′-(2-((2S)-1-(2-fluorobenzoyl)-2-pyrrolidinyl)-1H-imidazol-5-yl)-4-biphenylyl)-1H-imidazol-2-yl)-1-pyrrolidinyl)-N,N-dimethyl-2-oxo-1-phenylethanamine], the EC50 was 0.001 to 0.999 nM.

In the case of `O=C([C@@H](O)C1CCCCC1)N1CCC[C@H]1c1ncc(-c2ccc(-c3ccc(-c4cnc([C@@H]5CCCN5C(=O)[C@@H](O)C5CCCCC5)[nH]4)cc3)cc2)[nH]1` [LS2, (1S,1′S)-2,2′-(4,4′-biphenyldiylbis(1H-imidazole-5,2-diyl(2S)-2,1-pyrrolidinediyl))bis(1-cyclohexyl-2-oxoethanol)], the concentration giving a half-maximal response (EC50) was 1 to 99 nM.

As to `CCN(CC)[C@H]1CC[C@@H](C(=O)N2CCC[C@H]2c2ncc(-c3ccc(-c4ccc(-c5cnc([C@@H]6CCCN6C(=O)[C@H]6CC[C@@H](N(CC)CC)CC6)[nH]5)cc4)cc3)[nH]2)CC1` [cj-152], the EC50 was in the range of 1 to 99 nM.

In general, EC50 refers to the midpoint of the concentration-response curve.
